How the values were obtained:
[1] = target: T1, 3',5'-cyclic-AMP phosphodiesterase 4D (Homo sapiens, UniProt Q08499); assay: Inhibition of human recombinant PDE4D3 using FAM-cAMP as substrate measured after 1 hr by IMAP TR-FRET assay relative to control
[2] = species on record: Homo sapiens; assay: Inhibition of human recombinant PDE4A1A using FAM-cAMP as substrate measured after 1 hr by IMAP TR-FRET assay relative to control
[3] = system: Mus musculus; assay: Antiinflammatory activity against A/J mouse assessed as decrease in LPS-induced airway hyperreactivity at 3 umol/kg, po treated via gavage for 1 hr before LPS stimulation measured after 24 hrs by whole body plethysmography relative to control; format: functional; settings: 25 h
[4] = system: Mus musculus; assay: Antiinflammatory activity against A/J mouse assessed as decrease in LPS-induced TNFalpha production in lungs at 3 umol/kg, po treated via gavage for 1 hr before LPS stimulation and measured after 24 hrs by ELISA relative to control; format: functional; settings: 25 h
[5] = Inhibition of human recombinant PDE4A1A using FAM-cAMP as substrate measured after 1 hr by IMAP TR-FRET assay
[6] = target: T2, 3',5'-cyclic-AMP phosphodiesterase 4C (Homo sapiens, UniProt Q08493); assay: Inhibition of human recombinant PDE4C using FAM-cAMP as substrate at 10 uM measured after 1 hr by IMAP TR-FRET assay
T2 sequence (Q08493 whole entry): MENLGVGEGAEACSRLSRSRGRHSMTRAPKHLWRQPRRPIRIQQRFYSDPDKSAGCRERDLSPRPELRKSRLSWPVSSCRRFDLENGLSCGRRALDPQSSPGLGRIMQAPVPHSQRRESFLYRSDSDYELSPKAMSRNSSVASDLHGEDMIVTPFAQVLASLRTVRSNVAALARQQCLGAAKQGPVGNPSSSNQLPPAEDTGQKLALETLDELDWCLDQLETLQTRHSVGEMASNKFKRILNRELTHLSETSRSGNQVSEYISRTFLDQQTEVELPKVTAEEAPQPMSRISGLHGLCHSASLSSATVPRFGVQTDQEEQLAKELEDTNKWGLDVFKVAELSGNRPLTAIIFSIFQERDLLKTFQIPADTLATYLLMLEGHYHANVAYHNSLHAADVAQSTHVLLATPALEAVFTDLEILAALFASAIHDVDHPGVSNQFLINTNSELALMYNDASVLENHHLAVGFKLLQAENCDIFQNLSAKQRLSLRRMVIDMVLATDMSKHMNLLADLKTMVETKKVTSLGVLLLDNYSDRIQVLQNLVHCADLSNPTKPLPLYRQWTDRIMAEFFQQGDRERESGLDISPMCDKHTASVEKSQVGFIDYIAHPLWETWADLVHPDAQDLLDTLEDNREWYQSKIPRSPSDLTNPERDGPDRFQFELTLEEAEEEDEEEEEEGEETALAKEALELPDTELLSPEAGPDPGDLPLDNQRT

[7] = species on record: Homo sapiens; assay: Inhibition of human recombinant PDE4A1A using FAM-cAMP as substrate at 10 uM measured after 1 hr by IMAP TR-FRET assay
[8] = target: T3, 3',5'-cyclic-AMP phosphodiesterase 4B (Homo sapiens, UniProt Q07343); assay: Inhibition of human recombinant PDE4B1 using FAM-cAMP as substrate at 10 uM measured after 1 hr by IMAP TR-FRET assay
T3 sequence (Q07343 whole entry): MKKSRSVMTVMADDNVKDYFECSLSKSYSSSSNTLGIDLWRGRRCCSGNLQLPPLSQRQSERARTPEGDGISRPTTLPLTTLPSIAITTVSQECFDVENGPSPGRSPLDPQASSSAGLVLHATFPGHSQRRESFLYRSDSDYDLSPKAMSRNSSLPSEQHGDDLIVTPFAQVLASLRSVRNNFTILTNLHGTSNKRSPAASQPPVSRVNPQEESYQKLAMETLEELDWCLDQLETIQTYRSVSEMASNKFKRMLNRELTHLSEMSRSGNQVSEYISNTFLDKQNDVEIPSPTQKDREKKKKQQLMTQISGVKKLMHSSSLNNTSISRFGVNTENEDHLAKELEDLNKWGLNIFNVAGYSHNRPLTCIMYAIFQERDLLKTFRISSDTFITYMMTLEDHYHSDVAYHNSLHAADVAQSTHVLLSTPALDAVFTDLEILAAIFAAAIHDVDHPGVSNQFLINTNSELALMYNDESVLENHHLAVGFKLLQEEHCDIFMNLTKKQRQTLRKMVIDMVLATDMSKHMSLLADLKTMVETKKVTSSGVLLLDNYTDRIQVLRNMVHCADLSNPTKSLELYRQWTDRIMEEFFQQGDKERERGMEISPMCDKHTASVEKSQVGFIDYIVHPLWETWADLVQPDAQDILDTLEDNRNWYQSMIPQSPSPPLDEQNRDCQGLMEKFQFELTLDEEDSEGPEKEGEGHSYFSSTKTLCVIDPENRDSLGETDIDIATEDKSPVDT

[9] = target: T1, 3',5'-cyclic-AMP phosphodiesterase 4D; assay: Inhibition of human recombinant PDE4D3 using FAM-cAMP as substrate at 10 uM measured after 1 hr by IMAP TR-FRET assay
[10] = pampa, 8 h
[11] = in vitro; settings: PAMPA
[12] = target: 3',5'-cyclic-AMP phosphodiesterase 4A (Homo sapiens, UniProt P27815); assay: Inhibition of PDE4A (unknown origin)
Sequence of 3',5'-cyclic-AMP phosphodiesterase 4A (P27815 whole entry): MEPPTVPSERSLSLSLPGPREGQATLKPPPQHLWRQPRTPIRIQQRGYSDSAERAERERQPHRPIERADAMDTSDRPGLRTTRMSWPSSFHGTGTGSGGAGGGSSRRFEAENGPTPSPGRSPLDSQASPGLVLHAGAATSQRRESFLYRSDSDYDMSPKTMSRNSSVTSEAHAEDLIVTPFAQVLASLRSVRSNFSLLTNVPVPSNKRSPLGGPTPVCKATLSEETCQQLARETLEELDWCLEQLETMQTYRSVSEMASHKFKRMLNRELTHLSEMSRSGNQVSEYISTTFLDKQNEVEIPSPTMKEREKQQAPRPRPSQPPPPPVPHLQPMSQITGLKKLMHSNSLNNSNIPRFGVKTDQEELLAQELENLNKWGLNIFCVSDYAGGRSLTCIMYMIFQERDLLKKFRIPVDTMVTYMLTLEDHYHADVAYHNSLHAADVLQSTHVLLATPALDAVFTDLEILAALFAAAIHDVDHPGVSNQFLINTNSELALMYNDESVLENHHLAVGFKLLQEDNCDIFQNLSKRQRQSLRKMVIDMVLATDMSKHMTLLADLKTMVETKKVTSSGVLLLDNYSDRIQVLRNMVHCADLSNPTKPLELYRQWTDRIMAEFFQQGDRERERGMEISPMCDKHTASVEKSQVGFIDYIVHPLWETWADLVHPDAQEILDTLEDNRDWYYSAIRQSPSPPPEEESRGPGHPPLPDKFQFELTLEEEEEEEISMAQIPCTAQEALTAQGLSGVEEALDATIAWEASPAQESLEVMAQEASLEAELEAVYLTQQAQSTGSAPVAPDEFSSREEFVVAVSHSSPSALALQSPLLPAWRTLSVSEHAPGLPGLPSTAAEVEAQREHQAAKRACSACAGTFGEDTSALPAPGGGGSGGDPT

[13] = target: T3, 3',5'-cyclic-AMP phosphodiesterase 4B; assay: Inhibition of PDE4B (unknown origin)
[14] = target: T2, 3',5'-cyclic-AMP phosphodiesterase 4C
Description: Inhibition of PDE4C (unknown origin)

[15] = target: T1, 3',5'-cyclic-AMP phosphodiesterase 4D
Description: Inhibition of PDE4D (unknown origin)

T1 sequence (Q08499 whole entry): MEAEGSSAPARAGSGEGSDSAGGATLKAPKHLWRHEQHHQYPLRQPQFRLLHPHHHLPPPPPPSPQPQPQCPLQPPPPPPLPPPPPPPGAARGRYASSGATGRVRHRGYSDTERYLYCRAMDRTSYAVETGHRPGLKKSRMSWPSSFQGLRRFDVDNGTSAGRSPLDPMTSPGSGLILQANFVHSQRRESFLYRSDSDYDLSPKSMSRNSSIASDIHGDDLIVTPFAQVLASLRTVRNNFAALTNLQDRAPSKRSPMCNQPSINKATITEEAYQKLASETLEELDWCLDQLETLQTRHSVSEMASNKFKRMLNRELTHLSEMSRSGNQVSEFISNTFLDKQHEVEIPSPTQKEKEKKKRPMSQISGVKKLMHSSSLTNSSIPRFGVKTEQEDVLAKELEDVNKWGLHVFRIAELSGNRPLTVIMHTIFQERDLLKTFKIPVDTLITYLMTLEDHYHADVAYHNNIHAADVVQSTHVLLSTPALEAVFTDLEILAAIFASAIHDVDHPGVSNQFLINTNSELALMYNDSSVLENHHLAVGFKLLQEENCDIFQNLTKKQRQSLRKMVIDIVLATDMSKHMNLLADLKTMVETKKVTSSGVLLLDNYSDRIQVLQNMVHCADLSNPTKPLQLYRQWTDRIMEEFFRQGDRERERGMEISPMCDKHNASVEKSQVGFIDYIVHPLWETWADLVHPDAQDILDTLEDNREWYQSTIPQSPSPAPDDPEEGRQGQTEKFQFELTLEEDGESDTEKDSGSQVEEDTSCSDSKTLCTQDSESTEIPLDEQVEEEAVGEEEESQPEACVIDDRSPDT

Emax [1] [%]	Emax [2] [%]	IC50 [5] [nM]	inhibition [6] [%]	inhibition [7] [%]	inhibition [8] [%]	inhibition [9] [%]	Drug absorption [10] [%]	Papp at 8 h [11] [×10⁻⁶ cm/s]	IC50 [12] [nM]	IC50 [13] [nM]	IC50 [14] [nM]	IC50 [15] [nM]	Compound	inhibition in vivo at 3 µmol/kg [3] [%]	inhibition in vivo at 3 µmol/kg [4] [%]
99	99	200	98.5	91.3	91.3	98.8	93.74	7.29	–	–	–	–	COc1ccc([C@]2(C#N)CC[C@@H](C(=O)O)CC2)cc1OC1CCCC1 [CILOMILAST]	94	98.9
–	–	–	–	–	–	–	–	–	310	287	3860	3	C[C@@H](Oc1ccc(CNC(=O)c2cccnc2Oc2ccc3c(c2)OCO3)c(F)c1)C(=O)O	–	–
